The subject of series [1] is 4T1 tumor. Put plainly: Dynamic contrast enhancement of 4T1 tumor after i.v. administration. In kind it is in vivo. Particulars: pilot data. As to the method:
FIG. 5. Dynamic contrast enhancement of 4T1 tumor after i.v. administration of 1-hydroxybisphosphonate:Mn complex linked to HSP90 inhibitor as in Scheme 1C, 25 mg/kg. Graph on left depicts relative change in T1 enhancement in tumors after labeled drug (n=5) and after Mn:ETID complex alone (n=6).
Several synthetic strategies were used for labeling small molecule drugs either directly or via polyethyleneglycol (PEG) linkers. Two complexes, the first with a medronate analogue (Scheme IB) via the amine-terminated PEG linker and the second an etidronate analogue coupled through the COOH-terminated PEG linker (Scheme 1C), were synthesized, characterized and studied preliminarily in vivo.

Series [2] can be described thus: In vivo MRI after i.v. administration of Mn(II) complexes. Set-up: species or system mouse. As to the method: FIG. 4. A, In vivo MRI in control mouse after i.v. administration of MnNTA. B, MRI after i.v. administration of Mn:ETID ([…] of 40 mM solution).
In vivo behavior was tested of two relatively strong (log K1>7) ligands for Mn(II) chelation, nitrilotriacetic acid (NTA), closely related to EDTA, and […] (3,4-DBA).
Enhancement of the bowel is also noted but more variable, believed to represent elimination of the coordination complex from the gallbladder into the small intestine. In addition, subtle but transient T1 changes are observed in the skeletal muscles and long bones that return to normal after 30 min, paralleling the mild residual T1 changes in major vessels, consistent with a blood pool rather than local parenchymal uptake effect.

The conditions of series [3]: previously FDA-approved Mn(II) agent; cited from earlier work.

Molecules are shown by their SMILES.

In the case of `Cc1nn(-c2ccc(C(N)=O)c(NCCCOCCOCCOCCOCCOCCCC(=O)NCCCC(O)(P(=O)(O)O)P(=O)(O)O)c2)c2c1C(=O)CC(C)(C)C2` [Scheme 1C], the “Enhancement in 4T1 tumors relative to paramagnetic coordination complex alone” value in series [1] is recorded as “progressive accumulation of enhancement in 4T1 tumors that is greater than what is seen for the paramagnetic coordination complex alone”.
Turning to `O=C(O)CN(CC(=O)O)CC(=O)O` [NTA, nitrilotriacetic acid], in series [2] (after i.v. administration, indicates free Mn released into the blood pool), the Cardiac enhancement entry is reported as “cardiac enhancement was also seen”. In addition, the “Biodistribution on in vivo MR imaging” value in series [2] (mouse, in vivo, iv) was “release of free Mn and hepatocellular uptake”.
`Cc1ncc(COP(=O)([O-])[O-])c(CN(CCN(CC(=O)[O-])Cc2c(COP(=O)([O-])[O-])cnc(C)c2[O-])CC(=O)[O-])c1[O-].[H+].[H+].[H+].[Mn+2].[Na+].[Na+].[Na+]` [Teslascan, mangafodipir trisodium]: the In vivo distribution result in series [3] is “immediately distributed to the liver, releasing free Mn”.

The values above are taken from US11027028B2, “Manganese complexes with substituted bisphosphonates useful as imaging and therapeutic agents” (DUKE UNIVERSITY, priority 2015, dated 2021).
